Data reported in patent US8735620B2, “Processes for preparing (E)-styrylbenzylsulfone compounds and uses thereof for treating proliferative disorders” (priority 2008, dated 2014).
Where two headings read alike, the source gives them in different places.

Legend:
[1] = system: DLD1 (human colorectal tumor cell line); test: Cytotoxicity assay (trypan blue exclusion, 96 h), DLD1; type: cell-based
PC-3 = test: Tumor cell killing, PC-3; type: cell-based, human; conditions: PC-3, PROSTATE (AR+); read-out: Tumor cell killing (IC50) concentration
Sk-OV-3 = test: Tumor cell killing, Sk-OV-3; type: cell-based, human; conditions: Sk-OV-3, OVARIAN; read-out: Tumor cell killing (IC50) concentration
Method: (§1) Tissue Culture and Reagents: Paclitaxel was purchased from Sigma. Cell lines were purchased from ATCC. Cell lines were routinely grown in DMEM or RPM1 (CellGro) supplemented with 10% fetal bovine serum (Atlas) and 1 unit/mL penicillin-streptomycin (Gibco).
(§2) A number of tumor cell lines were tested using a dose response end point assay system. The cells were grown in either DMEM or RPMI supplemented with 10% fetal bovine serum and 1 unit/mL Penicillin-Streptomycin solution. The tumor cells were plated into 6 well dishes at a cell density of 1.0×10^5 cells/mL/well and compounds were added 24 h later at various concentrations. Cell counts were determined from duplicate wells after 96 h of treatment. The total number of viable cells was determined by trypan blue exclusion.

HCT-15 = test: Tumor cell killing, HCT-15; type: cell-based, human; conditions: HCT-15, COLO-RECTAL; read-out: Tumor cell killing (IC50) concentration
SW480 = test: Tumor cell killing, SW480; type: cell-based, human; conditions: SW480, COLO-RECTAL; read-out: Tumor cell killing (IC50) concentration
Method: as §1, §2

K562 = test: Tumor cell killing, K562; type: cell-based, human; conditions: K562, CML; read-out: Tumor cell killing (IC50) concentration
Method: as §1, §2

Daudi = test: Tumor cell killing, Daudi; type: cell-based, human; conditions: Burkitt's Lymphoma (B-cell), read-out: Tumor cell killing (IC50) concentration
DU145 [2] = test: Soft agar colony formation, DU145; type: cell-based, human; conditions: DU145, dose dependent
[3] = system: DU145 (prostate cancer) cells; test: Cell cycle analysis by flow cytometry, tumor cells; type: cell-based, human; conditions: DU145, 20 nM, 24 hr intervals
Method: (§3) FIG. 2 Preferential tumor cell killing activity of 6aa. A. Cell Cycle analyses. Normal (HUVEC) and tumor cells (DU145) were treated with 20 nM concentration of 6aa and incubated in medium containing 10% fetal bovine serum. At 24 hr intervals, the cells were fixed, stained with propidium iodide and analyzed for their DNA content by flow Cytometry. B. Induction of apoptosis in normal (HUVEC) and tumor cells (DU145) was assessed by western blot analysis of cell lysates treated with 6aa for 24, 48 and 72 h. The Western blots were probed with anti-PARP antibodies to assess the cleavage of the protein.
Human prostate tumor cells, DU145 cells, and normal diploid human lung fibroblasts, HFL-1 cells, were grown in DMEM (Cellgro) supplemented with 10% fetal bovine serum and 1 unit/mL penicillin-streptomycin. The cells were plated onto 100 mm^2 dishes at a cell density of 1.0×10^6 cells/dish, and 24 h later, they were treated with 2.5 μM of the compound. The cells were harvested 24, 48 and 72 h after treatment. The cells were removed from the plate by trypsin digestion and combined with the non-attached cells found in the medium. The cell pellets were washed in phosphate buffered saline (PBS), and fixed in ice cold 70% ethanol for at least 24 h. […] The stained cells were then analyzed on a Becton-Dickinson (BD) (FACScan) flow cytometer and the data analyzed by cell cycle analysis software (Modfit, BD).

DU145 [4] = test: PARP cleavage western blot, tumor cells; type: cell-based, human; conditions: tumor cells (DU145), 24, 48 and 72 h
Method: as §3
BT20 cells were plated at a density of 3.0×10^6 cells per 150 mm^2 plate and treated 24 h later with either DMSO or 6aa. The cells were collected at the indicated time points and cell pellets were frozen. The frozen cell pellets were lysed in 1% NP40/PBS lysis buffer containing protease inhibitors. Equal amounts of total cellular protein was then resolved on a 10%-SDS-polyacrylamide gel. The gels were transferred onto nitrocellulose paper (S/S), hybridized with anti-PARP antibodies (BD) and developed using ECL (Perkin-Elmer, MA) solution.

bone marrow cells = test: Bone marrow harvest and colony formation assay; type: in vivo, CD-1 mice; conditions: 100 mg/kg intravenously, 12, 24 and 48 h after injection
Method: FIG. 4 Bone marrow toxicity profile of 6ab. To assess the toxicity of 6ab, the phosphate salt of the drug was injected into mice (100 mg/Kg) and bone marrow harvested from femur and tibia after 12, 24 and […] following the injection of the drug. The bone marrow cells were cultured in methylcellulose medium supplemented with a mixture of stem cell factor, GM-CSF, IL-3 and erythropoietin for one week and colony forming units were determined.
Bone marrow was harvested from femur and tibia of CD-1 mice injected with 200 μL of PBS or 6ab [10 mg/mL:100 mg/kg dose] at 12, 24, or 48 h before the sacrifice. The bone marrow cells were cultured in Methylcellulose medium supplemented with 50 ng/mL rmStem Cell Factor, 10 ng/mL rmIL-3, 10 ng/mL rh IL-6, 200 μg/mL human Transfeffin, and 3 units/mL rhErythropoietin (Stem Cell Technologies, Vancouver, BC, Canada). Cultures were seeded in duplicates using 35 mm plastic petri dishes and colony forming units were determined after one week.

[5] = system: mantle cell lymphoma cell lines; conditions: Park et al Oncogene 2007; cited from earlier work
[6] = DLD1, 96 h treatment, read-out: DLD1 IC50
[7] = DLD-1, COLO-RECTAL, Table 2, read-out: Tumor cell killing (IC50) concentration

COc1cc(OC)c(/C=C/S(=O)(=O)Cc2ccc(OC)c(O)c2)c(OC)c1 [6aa, (E)-2,4,6-Trimethoxystyryl-3-Hydroxy-4-Methoxybenzyl Sulfone]
IC50 [1, 6]: 3 nM | IC50 [1, 7]: 8 nM | IC50 (PC-3): 8 nM | IC50 (Sk-OV-3): 6 nM | IC50 (HCT-15): 8 nM | IC50 (SW480): 7 nM | IC50 (K562): 4 nM | IC50 (Daudi): 7 nM | growth of tumor cells in soft agar (DU145 [2]): complete inhibition of the growth of tumor cells | effect on cell cycle progression [3]: gradually accumulated in the G2/M phase | apoptosis as judged by PARP cleavage (DU145 [4]): activation of apoptotic pathways | in vitro hematopoietic colony formation of bone marrow cells (bone marrow cells): no reduction in total, myeloid or lymphoid colony formation | effect on mantle cell lymphoma cell lines [5]: altered the growth and cell cycle status

COc1ccc(CS(=O)(=O)/C=C/c2c(OC)cc(OC)cc2OC)cc1 [6s, (E)-2,4,6-Trimethoxystyryl-4-Methoxybenzyl sulfone]
IC50 [1, 6]: 40 nM | IC50 [1, 7]: 40 nM | IC50 (PC-3): 30 nM | IC50 (HCT-15): 20 nM | IC50 (Daudi): 8 nM | effect on mantle cell lymphoma cell lines [5]: altered the growth and cell cycle status
